{
  "source": "patent US20090298073A1",
  "about": "“Kidney Toxicity Biomarkers” (priority 2006, published 2009)",
  "format_in_all_cases": "in vivo, rat",
  "key": {"male rats [1]": {"system": "male rats", "test": "ELISA of urinary TFF3 in rats treated with kidney toxicants", "settings": "urine", "protocol": "(§1) The biomarkers of the present invention can be measured in blood or urine during testing of a novel therapeutic compound. […] ELISA antibody assays are used to evaluate changes in protein levels.\n(§2) Antibodies were purchased or made and ELISA assays were performed to measure the levels of four Kidney Toxicity Biomarker proteins in urine. The proteins are TFF3; Tarnm Horsfall protein (THP); neutrophil gelatinase-associated lipocalin (NGAL) and albumin."}, "male rats [2]": {"system": "male rats", "test": "ELISA of urinary albumin in rats treated with kidney toxicants", "settings": "urine", "protocol": "as §1, §2"}, "male rats [3]": {"system": "male rats", "test": "Histopathologically-assessed kidney toxicity in rats"}, "male rats [4]": {"system": "male rats", "test": "ELISA of urinary Tamm Horsfall protein (THP) in rats treated with kidney toxicants", "settings": "urine", "protocol": "as §1, §2"}, "male rats [5]": {"system": "male rats", "test": "ELISA of urinary NGAL in rats treated with kidney toxicants", "settings": "urine", "protocol": "as §1, §2"}, "[6]": {"settings": "gentamicin 20 mg/Kg/Day, Day 15"}, "[7]": {"settings": "gentamicin 80 mg/Kg/Day, Day 15"}, "[8]": {"settings": "gentamicin 240 mg/Kg/Day, Day 3"}, "[9]": {"settings": "gentamicin 240 mg/Kg/Day, Day 9"}, "[10]": {"settings": "gentamicin 240 mg/Kg/Day, Day 12"}},
  "data": [
    {"substance": "Gentamicin", "values": [
      {"measurement": "TFF3", "setting": "male rats [1]; gentamicin 20 mg/Kg/Day, Day 3", "value": 634, "unit": "ng/mL"},
      {"measurement": "TFF3", "setting": "male rats [1]; gentamicin 20 mg/Kg/Day, Day 9", "value": 202, "unit": "ng/mL"},
      {"measurement": "TFF3", "setting": "male rats [1]; [6]", "value": 265, "unit": "ng/mL"},
      {"measurement": "TFF3", "setting": "male rats [1]; gentamicin 80 mg/Kg/Day, Day 3", "value": 280, "unit": "ng/mL"},
      {"measurement": "TFF3", "setting": "male rats [1]; gentamicin 80 mg/Kg/Day, Day 9", "value": 121, "unit": "ng/mL"},
      {"measurement": "TFF3", "setting": "male rats [1]; [7]", "value": 69, "unit": "ng/mL"},
      {"measurement": "TFF3", "setting": "male rats [1]; [8]", "value": 132, "unit": "ng/mL"},
      {"measurement": "TFF3", "setting": "male rats [1]; [9]", "value": 1.3, "unit": "ng/mL"},
      {"measurement": "TFF3", "setting": "male rats [1]; [10]", "value": 29, "unit": "ng/mL"},
      {"measurement": "Albumin", "setting": "male rats [2]; gentamicin 20 mg/Kg/Day, Day 3", "value": 14, "unit": "µg/mL"},
      {"measurement": "Albumin", "setting": "male rats [2]; gentamicin 20 mg/Kg/Day, Day 9", "value": 7, "unit": "µg/mL"},
      {"measurement": "Albumin", "setting": "male rats [2]; [6]", "value": 13, "unit": "µg/mL"},
      {"measurement": "Albumin", "setting": "male rats [2]; gentamicin 80 mg/Kg/Day, Day 3", "value": 221, "unit": "µg/mL"},
      {"measurement": "Albumin", "setting": "male rats [2]; gentamicin 80 mg/Kg/Day, Day 9", "value": 190, "unit": "µg/mL"},
      {"measurement": "Albumin", "setting": "male rats [2]; [7]", "value": 22, "unit": "µg/mL"},
      {"measurement": "Albumin", "setting": "male rats [2]; [8]", "value": 129, "unit": "µg/mL"},
      {"measurement": "Albumin", "setting": "male rats [2]; [9]", "value": 534, "unit": "µg/mL"},
      {"measurement": "Albumin", "setting": "male rats [2]; [10]", "value": 502, "unit": "µg/mL"},
      {"measurement": "Histopathology Score", "setting": "male rats [3]; [6]", "value": "<1"},
      {"measurement": "Histopathology Score", "setting": "male rats [3]; gentamicin 80 mg/Kg/Day, Day 3", "value": "<1"},
      {"measurement": "Histopathology Score", "setting": "male rats [3]; [7]", "value": 2},
      {"measurement": "Histopathology Score", "setting": "male rats [3]; [8]", "value": "<1"},
      {"measurement": "Histopathology Score", "setting": "male rats [3]; [9]", "value": 4},
      {"measurement": "Histopathology Score", "setting": "male rats [3]; [10]", "value": 5},
      {"measurement": "THP", "setting": "male rats [4]; gentamicin 20 mg/Kg/Day, Day 3", "value": 4.1, "unit": "µg/mL"},
      {"measurement": "THP", "setting": "male rats [4]; gentamicin 20 mg/Kg/Day, Day 9", "value": 4.5, "unit": "µg/mL"},
      {"measurement": "THP", "setting": "male rats [4]; [6]", "value": 4.4, "unit": "µg/mL"},
      {"measurement": "THP", "setting": "male rats [4]; gentamicin 80 mg/Kg/Day, Day 3", "value": 3.4, "unit": "µg/mL"},
      {"measurement": "THP", "setting": "male rats [4]; gentamicin 80 mg/Kg/Day, Day 9", "value": 3.1, "unit": "µg/mL"},
      {"measurement": "THP", "setting": "male rats [4]; [7]", "value": 3.9, "unit": "µg/mL"},
      {"measurement": "THP", "setting": "male rats [4]; [8]", "value": 3.2, "unit": "µg/mL"},
      {"measurement": "THP", "setting": "male rats [4]; [9]", "value": 1.3, "unit": "µg/mL"},
      {"measurement": "THP", "setting": "male rats [4]; [10]", "value": 1.9, "unit": "µg/mL"},
      {"measurement": "NGAL", "setting": "male rats [5]; gentamicin 20 mg/Kg/Day, Day 3", "value": 14, "unit": "µg/mL"},
      {"measurement": "NGAL", "setting": "male rats [5]; gentamicin 20 mg/Kg/Day, Day 9", "value": 15, "unit": "µg/mL"},
      {"measurement": "NGAL", "setting": "male rats [5]; [6]", "value": 15, "unit": "µg/mL"},
      {"measurement": "NGAL", "setting": "male rats [5]; gentamicin 80 mg/Kg/Day, Day 3", "value": 13, "unit": "µg/mL"},
      {"measurement": "NGAL", "setting": "male rats [5]; gentamicin 80 mg/Kg/Day, Day 9", "value": 14, "unit": "µg/mL"},
      {"measurement": "NGAL", "setting": "male rats [5]; [7]", "value": 20, "unit": "µg/mL"},
      {"measurement": "NGAL", "setting": "male rats [5]; [8]", "value": 17, "unit": "µg/mL"},
      {"measurement": "NGAL", "setting": "male rats [5]; [9]", "value": 13, "unit": "µg/mL"},
      {"measurement": "NGAL", "setting": "male rats [5]; [10]", "value": 25, "unit": "µg/mL"}
    ]}
  ]
}
